Patent publication US10722501B2 (BAYER AKTIENGESELLSCHAFT, priority 2016, dated 2020)

These molecules were tested against T1, recombinant full-length human prolyl endopeptidase (PREP) (Homo sapiens, UniProt P48147) (assay: Biochemical human prolyl endopeptidase (PREP) assay with fluorescently labelled substrate). Settings: substrate Z-Gly-Pro-AMC 50 μM, 32° C., 60 min; some as mean values from multiple independent determinations.
T1 construct: To recombinant full-length human prolyl endopeptidase (PREP, R&D-Systems, 4308-SE); purchased R&D-Systems 4308-SE
T1 sequence (P48147 1-710): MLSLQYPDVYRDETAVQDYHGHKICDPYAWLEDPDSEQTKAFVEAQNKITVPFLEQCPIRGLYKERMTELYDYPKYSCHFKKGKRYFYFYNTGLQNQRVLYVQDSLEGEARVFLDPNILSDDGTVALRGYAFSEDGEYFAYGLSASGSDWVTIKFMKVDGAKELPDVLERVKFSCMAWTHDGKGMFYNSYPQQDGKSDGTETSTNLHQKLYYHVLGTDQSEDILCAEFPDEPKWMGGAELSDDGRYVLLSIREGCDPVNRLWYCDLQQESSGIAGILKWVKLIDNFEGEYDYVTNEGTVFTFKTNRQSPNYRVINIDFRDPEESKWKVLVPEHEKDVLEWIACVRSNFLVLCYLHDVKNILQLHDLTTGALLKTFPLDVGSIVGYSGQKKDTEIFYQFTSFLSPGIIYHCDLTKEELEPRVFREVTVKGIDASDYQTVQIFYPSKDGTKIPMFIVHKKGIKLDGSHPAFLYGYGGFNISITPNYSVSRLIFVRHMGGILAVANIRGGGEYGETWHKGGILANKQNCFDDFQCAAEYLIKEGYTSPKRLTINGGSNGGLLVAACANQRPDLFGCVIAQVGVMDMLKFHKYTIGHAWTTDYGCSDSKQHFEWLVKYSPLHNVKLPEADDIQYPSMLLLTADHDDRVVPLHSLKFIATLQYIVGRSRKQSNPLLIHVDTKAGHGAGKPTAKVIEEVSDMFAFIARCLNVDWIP
Procedure: B-1 Biochemical Human Prolyl Endopeptidase (PREP) Assay for Identification of Inhibitors of PREP Activity Using a Fluorescently Labelled Substrate Principle of the Assay:
The enzymatic conversion of the fluorescent peptide substrate was observed on the basis of the measurement of the fluorescence intensity. The enzyme activity was determined by the ascertaining of the initial slope in the increase in fluorescence. Compounds that inhibit PREP were identified on the basis of the decrease in the initial slope compared to a reaction mixture without test compound.
Determination of Activity:
IC50 values were determined by the plotting of the percentage PREP activity against the concentration of the test substance by interpolation.
To recombinant full-length human prolyl endopeptidase (PREP, R&D-Systems, 4308-SE; final concentration, for example, 0.4 nM, volume: 25 μl) in reaction buffer (50 mM Tris-HCl, pH 7.5; 150 mM NaCl; 0.13% BSA, 5 mM EDTA, 3 mM GSH, 0.005% Brij-35) was added a test compound (in DMSO, in an appropriate final concentration range from 1 nM to 30 μM, volume: 1 μl) in a well of a 384-well microtitre plate. The reaction was initiated by adding the substrate Z-Gly-Pro-AMC (final concentration 50 μM; Z=carboxybenzyl; AMC=7-amino-4-methylcoumarin, volume: 25 μl). The progress of the PREP reaction was observed by measuring the fluorescence intensity in a Tecan SAFIRE II plate spectrophotometer at 32° C. over a period of 60 min (excitation wavelength: 360 nm, emission wavelength: 465 nm).
Table B-1 below collates the IC50 values thus obtained from the human prolyl endopeptidase assay for individual working examples of the invention (some as mean values from multiple independent individual determinations).
Work on O=C([C@@H]1CCCc2nn(Cc3csc(C(F)(F)F)n3)c(=O)n21)N1C[C@@H](F)[C@@H](F)C1 [Example 366, (5S)-5-{[(3R,4S)-3,4-Difluoropyrrolidin-1-yl]carbonyl}-2-{[2-(trifluoromethyl)-1,3-thiazol-4-yl]methyl}-5,6,7,8-tetrahydro[1,2,4]triazolo[4,3-a]pyridin-3(2H)-one] yielded an IC50 of 2.1 nM. Cc1ccc(Cn2nc3n(c2=O)[C@H](C(=O)N2CCC(C)(F)C2)CCC3)cc1 (mixture of isomers) [Example 151, (5S)-5-{[(3RS)-3-Fluoro-3-methylpyrrolidin-1-yl]carbonyl}-2-(4-methylbenzyl)-5,6,7,8-tetrahydro[1,2,4]triazolo[4,3-a]pyridin-3(2H)-one] showed an IC50 of 0.26 nM. Molecule O=C([C@@H]1CCCc2nn(Cc3cc(C(F)(F)F)nc4ccccc34)c(=O)n21)N1C[C@@H](F)[C@@H](F)C1 [Example 497, (5S)-5-{[(3R,4S)-3,4-Difluoropyrrolidin-1-yl]carbonyl}-2-{[2-(trifluoromethyl)quinolin-4-yl]methyl}-5,6,7,8-tetrahydro[1,2,4]triazolo[4,3-a]pyridin-3(2H)-one] has an IC50 of 0.18 nM. Work on CC1CCC(C(=O)N2CCC(F)(F)C2)n2c1nn(Cc1ccc(F)c(Cl)c1)c2=O (racemic) [Example 323, (5RS,8RS)-2-(3-Chloro-4-fluorobenzyl)-5-[(3,3-difluoropyrrolidin-1-yl)carbonyl]-8-methyl-5,6,7,8-tetrahydro[1,2,4]triazolo[4,3-a]pyridin-3(2H)-one] yielded an IC50 of 0.96 nM. Molecule N#C[C@@H]1CCCN1C(=O)[C@@H]1CCCc2nn(Cc3ccc(C(F)(F)F)nc3)c(=O)n21 [Example 511, (2S)-1-{[(5S)-3-Oxo-2-{[6-(trifluoromethyl)pyridin-3-yl]methyl}-2,3,5,6,7,8-hexahydro[1,2,4]triazolo[4,3-a]pyridin-5-yl]carbonyl}pyrrolidine-2-carbonitrile] has an IC50 of 0.365 nM. Work on O=C([C@@H]1CCCc2nn(Cc3ccc(F)cc3Cl)c(=O)n21)N1C[C@@H](F)[C@@H](F)C1 [Example 474, (5S)-2-(2-Chloro-4-fluorobenzyl)-5-{[(3R,4S)-3,4-difluoropyrrolidin-1-yl]carbonyl}-5,6,7,8-tetrahydro[1,2,4]triazolo[4,3-a]pyridin-3(2H)-one] yielded an IC50 of 0.36 nM. In the case of O=C([C@@H]1CCCc2nn(Cc3ccc(C(F)(F)F)nc3)c(=O)n21)N1CCC2CC21 (single isomer, unassigned) [Example 201], the IC50 is reported as 5.45 nM. For O=C(C1CCCc2nn(Cc3cccc(C(F)(F)F)c3)c(=O)n21)N1CCC(F)(F)C1 (racemic) [Example 47, (5RS)-5-[(3,3-Difluoropyrrolidin-1-yl)carbonyl]-2-[3-(trifluoromethyl)benzyl]-5,6,7,8-tetrahydro[1,2,4]triazolo[4,3-a]pyridin-3(2H)-one], the IC50 was 1.6 nM. Molecule O=C([C@@H]1CCCc2nn(Cc3ccc(C(F)F)nc3)c(=O)n21)N1C[C@@H](F)[C@@H](F)C1 [Example 207, (5S)-2-{[6-(Difluoromethyl)pyridin-3-yl]methyl}-5-{[(3R,4S)-3,4-difluoropyrrolidin-1-yl]carbonyl}-5,6,7,8-tetrahydro[1,2,4]triazolo[4,3-a]pyridin-3(2H)-one] has an IC50 of 4.2 nM. For O=C([C@@H]1CCCc2nn(Cc3ccc(Cl)nc3)c(=O)n21)N1CC(F)C(F)C1 (mixture of isomers) [Example 550, (5S)-2-[(6-Chloropyridin-3-yl)methyl]-5-{[trans-3,4-difluoropyrrolidin-1-yl]carbonyl}-5,6,7,8-tetrahydro[1,2,4]triazolo[4,3-a]pyridin-3(2H)-one], the IC50 was 18 nM. With Cc1ccc(Cn2nc3n(c2=O)C(C(=O)N2CC(=O)C2)CCC3)cc1 (racemic) [Example 133, (5RS)-2-(4-Methylbenzyl)-5-[(3-oxoazetidin-1-yl)carbonyl]-5,6,7,8-tetrahydro[1,2,4]triazolo[4,3-a]pyridin-3(2H)-one] the IC50 was 145 nM.
